The structures appear in SMILES notation. pIC50: −log10 of the molar value.

This passage reports IC50 results from BindingDB's records for doi:10.1021/acsmedchemlett.5b00050 (Genomics Institute of The Novartis Research Foundation, 2015).

Test [1] in a line: Inhibition of Tel-fused TRKB (unknown origin) overexpressed in mouse BA/F3 cells assessed as inhibition of cell proliferation after 48 hrs by luciferase reporter gene assay in absence of recombinant mouse IL3.
The nature of test [2]: Inhibition of Tel-fused FMS (unknown origin) expressed in mouse BA/F3 cells after 48 hrs by luciferase reporter gene assay in absence of recombinant mouse IL3. (A reporter such as luciferase makes a cellular process visible.)
The nature of test [3]: Inhibition of Tel-fused ROS (unknown origin) expressed in mouse BA/F3 cells after 48 hrs by luciferase reporter gene assay in absence of recombinant mouse IL3.
Test [4] is described as follows: Inhibition of Tel-fused TRKC (unknown origin) overexpressed in mouse BA/F3 cells assessed as inhibition of cell proliferation after 48 hrs by luciferase reporter gene assay in absence of recombinant mouse IL3.
Test [5] can be described thus: Inhibition of Tel-fused FGR (unknown origin) expressed in mouse BA/F3 cells after 48 hrs by luciferase reporter gene assay in absence of recombinant mouse IL3.
The nature of test [6]: Inhibition of Tel-fused KIT (unknown origin) expressed in mouse BA/F3 cells after 48 hrs by luciferase reporter gene assay in absence of recombinant mouse IL3.
Test [7] in a line: Inhibition of Tel-fused BMX (unknown origin) expressed in mouse BA/F3 cells after 48 hrs by luciferase reporter gene assay in absence of recombinant mouse IL3.
Test [8] can be described thus: Inhibition of Tel-fused FGFR4 (unknown origin) expressed in mouse BA/F3 cells after 48 hrs by luciferase reporter gene assay in absence of recombinant mouse IL3.
Test [9] is described as follows: Inhibition of Tel-fused SYK (unknown origin) expressed in mouse BA/F3 cells after 48 hrs by luciferase reporter gene assay in absence of recombinant mouse IL3.
A short description of test [10]: Inhibition of Tel-fused ALK (unknown origin) expressed in mouse BA/F3 cells after 48 hrs by luciferase reporter gene assay in absence of recombinant mouse IL3.
The nature of test [11]: Inhibition of Tel-fused MET (unknown origin) expressed in mouse BA/F3 cells after 48 hrs by luciferase reporter gene assay in absence of recombinant mouse IL3.
The nature of test [12]: Inhibition of Tel-fused TRKA (unknown origin) overexpressed in mouse BA/F3 cells assessed as inhibition of cell proliferation after 48 hrs by luciferase reporter gene assay in absence of recombinant mouse IL3.
Test [13] can be described thus: Inhibition of Tel-fused KDR (unknown origin) expressed in mouse BA/F3 cells after 48 hrs by luciferase reporter gene assay in absence of recombinant mouse IL3.
Test [14] in a line: Inhibition of Tel-fused ZAP70 (unknown origin) expressed in mouse BA/F3 cells after 48 hrs by luciferase reporter gene assay in absence of recombinant mouse IL3.
The nature of test [15]: Inhibition of Tel-fused LCK (unknown origin) expressed in mouse BA/F3 cells after 48 hrs by luciferase reporter gene assay in absence of recombinant mouse IL3.
Test [16] is described as follows: Inhibition of Tel-fused FGFR3 (unknown origin) expressed in mouse BA/F3 cells after 48 hrs by luciferase reporter gene assay in absence of recombinant mouse IL3.
The nature of test [17]: Inhibition of Tel-fused TIE1 (unknown origin) expressed in mouse BA/F3 cells after 48 hrs by luciferase reporter gene assay in absence of recombinant mouse IL3.
Test [18] is described as follows: Inhibition of Tel-fused MER (unknown origin) expressed in mouse BA/F3 cells after 48 hrs by luciferase reporter gene assay in absence of recombinant mouse IL3.
The nature of test [19]: Inhibition of BCR-fused ABL (unknown origin) expressed in mouse BA/F3 cells after 48 hrs by luciferase reporter gene assay in absence of recombinant mouse IL3.
A short description of test [20]: Inhibition of Tel-fused BRAF (unknown origin) expressed in mouse BA/F3 cells after 48 hrs by luciferase reporter gene assay in absence of recombinant mouse IL3.
Test [21] in a line: Inhibition of Tel-fused IGF1R (unknown origin) expressed in mouse BA/F3 cells after 48 hrs by luciferase reporter gene assay in absence of recombinant mouse IL3.
A short description of test [22]: Inhibition of Tel-fused RON (unknown origin) expressed in mouse BA/F3 cells after 48 hrs by luciferase reporter gene assay in absence of recombinant mouse IL3.
Test [23] is described as follows: Inhibition of Tel-fused INSR (unknown origin) expressed in mouse BA/F3 cells after 48 hrs by luciferase reporter gene assay in absence of recombinant mouse IL3.
Test [24] in a line: Inhibition of Tel-fused FLT1 (unknown origin) expressed in mouse BA/F3 cells after 48 hrs by luciferase reporter gene assay in absence of recombinant mouse IL3.
A short description of test [25]: Inhibition of Tel-fused PDGFRbeta (unknown origin) expressed in mouse BA/F3 cells after 48 hrs by luciferase reporter gene assay in absence of recombinant mouse IL3.
Test [26] is described as follows: Inhibition of Tel-fused FLT3 (unknown origin) expressed in mouse BA/F3 cells after 48 hrs by luciferase reporter gene assay in absence of recombinant mouse IL3.
Test [27] is described as follows: Inhibition of Tel-fused LYN (unknown origin) expressed in mouse BA/F3 cells after 48 hrs by luciferase reporter gene assay in absence of recombinant mouse IL3.
Test [28] in a line: Inhibition of TPM3-fused TRKA (unknown origin) expressed in human KM12 cells assessed as inhibition of cell proliferation after 48 hrs by luciferase reporter gene assay.
Test [29] in a line: Inhibition of Tel-fused SRC (unknown origin) expressed in mouse BA/F3 cells after 48 hrs by luciferase reporter gene assay in absence of recombinant mouse IL3.
Test [30] is described as follows: Inhibition of NGF-activated full length TRKA (unknown origin) expressed in mouse BA/F3 cells assessed as inhibition of cell proliferation.
Test [31] can be described thus: Inhibition of NMP-fused ALK (unknown origin) expressed in mouse BA/F3 cells after 48 hrs by luciferase reporter gene assay in absence of recombinant mouse IL3.
Test [32] in a line: Inhibition of Tel-fused TYRO3 (unknown origin) expressed in mouse BA/F3 cells after 48 hrs by luciferase reporter gene assay in absence of recombinant mouse IL3.
Test [33] can be described thus: Inhibition of Tel-fused RET (unknown origin) expressed in mouse BA/F3 cells after 48 hrs by luciferase reporter gene assay in absence of recombinant mouse IL3.

For `Fc1cccc([C@H]2CCCN2c2ccc3ncc(-c4ccccn4)n3n2)c1`, the pIC50 (commonly the negative decadic logarithm of the IC50, by convention in mol/L) is 9.00 in test [1]; below 5.00 in test [2]; 6.22 in test [3]; 9.00 in [4]; 5.06 in test [5]; 5.26 in [6]. In addition, in test [7], the pIC50 was below 5.00.

As for `N#Cc1ccc(-c2cnc3ccc(NCc4ccccc4)nn23)cc1`, the pIC50 is 5.23 in test [8]; 5.40 in [9]; 5.51 in [10]; 5.29 in [11]; 6.07 in test [12]; 5.39 in test [13]. Further, the pIC50 in test [14] was 5.19; in test [15], 5.70; in test [1], 6.57; in [16], 5.41; in [17] it was 5.26; in test [2], 5.47. The pIC50 is 6.52 in [3]; 5.27 in test [18]; 5.42 in test [19]; 5.60 in [20]; 5.40 in test [21]; 7.00 in test [4]. For the same compound, the pIC50 is 5.21 in test [22]; 5.07 in test [23]; 5.52 in test [24]; 5.19 in [5]; 5.66 in [6]; 5.70 in [25]. The results for the pIC50 in test [7] and in test [26] were 5.01 and 6.14, respectively.

For the compound `OC1CCN(c2cc(-c3cnc4ccc(N5CCC[C@@H]5c5cccc(F)c5)nn34)ccn2)CC1`, the pIC50 is 5.36 in test [8]; 5.10 in test [9]; 5.41 in test [10]; 8.40 in [12]; 5.30 in test [13]; 5.28 in test [15]. The negative logarithm of the IC50 (pIC50) is 8.40 in test [1]; 5.30 in test [16]; 5.31 in test [27]; 8.00 in [28]; 5.28 in [2]; 6.68 in test [3]. Besides, the pIC50 in test [18] was 5.29; in [19], 5.28; in test [29], 5.34; in test [30], 8.52; in test [31], 5.52; in [32], 5.30. Also, the pIC50 in [4] is 8.70; in [22], 5.32; in test [24], 5.28; in test [6], 5.15; in [25], 5.34; in [7], 5.37. In addition, the negative logarithm of the IC50 (pIC50) in test [26] is 5.37.

As for `O=C(O)CN1CCN(c2cc(-c3cnc4ccc(N5CCC[C@@H]5c5cccc(F)c5)nn34)ccn2)CC1`, the negative-log IC50 (pIC50) in test [8] was 5.28; in test [9], 5.36; in [10], 5.66; in [11], 5.37; in test [12] it was 9.00; in test [13], 6.00. The pIC50 in test [14] was 5.28; in test [15], 5.52; in test [1] it was 9.00; in [27], 5.47; in [28], 9.00; in test [17], 5.37. Besides, the pIC50 was 5.60 in [2]; 7.22 in test [3]; 5.43 in test [33]; 5.62 in test [19]; 5.60 in test [29]; 5.21 in test [20]. For the same compound, the pIC50 in test [21] was 5.29; in [30], 9.00; in test [31], 5.92; in test [32], 5.28; in test [4], above 9.00; in test [23], 5.28. Also, the pIC50 in test [6] was 6.10; in test [25], 5.66; in [26], 5.48.

For `N#Cc1ccc(-c2cnc3ccc(N4CCCC4c4cccc(F)c4)nn23)cc1` (centres undefined), in test [1], the pIC50 is 7.54.

`N#Cc1ccc(-c2cnc3ccc(N4CCC[C@H]4c4cccc(F)c4)nn23)cc1`: the pIC50 in test [1] was 5.71.

As for `N#Cc1ccc(-c2cnc3ccc(N4CCC[C@@H]4c4cccc(F)c4)nn23)cc1`, the pIC50 in test [1] was 7.96.

Take `NS(=O)(=O)c1ccc(-c2cnc3ccc(NCc4cccc(F)c4)nn23)cc1`: the pIC50 in test [12] is 7.57; in [1], 7.89.

For the compound `CN(Cc1ccccc1)c1ccc2ncc(-c3ccc(C#N)cc3)n2n1`, the pIC50 in test [12] is 6.28; in test [1] it was 6.89.

Take `N#Cc1ccc(-c2cnc3ccc(N4CCCCC4c4cccc(F)c4)nn23)cc1` (centres undefined): the pIC50 in [1] was 7.30.

As to `N#Cc1ccc(-c2cnc3ccc(NCc4cccc(F)c4)nn23)cc1`, the values for the pIC50 in test [12] and in [1] were 7.30 and 7.68, respectively.

Regarding `COc1ccccc1CNc1ccc2ncc(-c3ccc(C#N)cc3)n2n1`, the pIC50 in test [12] is 6.77; in test [1] it was 6.92.

Turning to `OCc1ccc(-c2cnc3ccc(NCc4cccc(F)c4)nn23)cc1`, the results for the pIC50 in test [12] and in test [1] were 7.12 and 7.57, respectively.

`O=C(Nc1ccc(-c2cnc3ccc(NCc4cccc(F)c4)nn23)cc1)C1CCOCC1`: the figures for the pIC50 in test [12] and in test [1] were 8.22 and 8.15, respectively.

Consider `N#Cc1cccc(-c2cnc3ccc(NCc4ccccc4)nn23)c1`, for which the pIC50 in test [12] is 6.13; in test [1], 6.70.

With `OC1CCN(c2cccc(-c3cnc4ccc(N5CCC[C@@H]5c5cccc(F)c5)nn34)n2)CC1`, the pIC50 in test [1] is 8.40.
